GI50 and TGI data for 17 compounds are collected here from PubChem BioAssay (NCI).

Holding throughout (test): NCI tumour cell line growth inhibition, 48 h
Test [1] deals with 786-0 renal.
For test [2], the system named is OVCAR-4 ovarian.
In test [3] the test system is HL-60(TB) leukemia.
The subject of test [4] is SF-295 CNS.
The subject of test [5] is SR leukemia.
Test [6] concerns OVCAR-8 ovarian.
The subject of test [7] is SK-MEL-5 melanoma.
Test [8] concerns U251 CNS.
Test [9] deals with HCT-15 colon.
The test system of test [10] is MALME-3M melanoma.

Each structure is given as a SMILES string. Several values for one entry are separate records, joined by “and”; a condition that tells them apart may be missing. Equal values may be shown once.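 Five concentrations, 48 hours, 96-well plates. At the GI50, growth is halved. TGI: total growth inhibition.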

As for `COc1ccc2c(c1)[n+](=O)c(C(=O)/C=C/c1cc(OC)c(OC)c(OC)c1)c(C)n2[O-]`, the GI50 in test [1] was 12.8 µM; in [2] it was over 100 µM; in test [3], over 100 µM; in [4], 27.1 µM; in test [5], 58.4 µM; in [6], 6.03 µM. In addition, the GI50 is 40.4 µM in test [7], 9.87 µM in [8], 29.1 µM in test [9] and 19.1 µM in test [10]. In addition, the TGI in [1] is 30.7 µM; in [2], over 100 µM; in [3], over 100 µM; in test [4], over 100 µM; in test [5], over 100 µM; in test [6], 30.3 µM. For the same compound, the TGI in [7] is over 100 µM; in test [8], 22.4 µM; in test [9] it was over 100 µM; in test [10], 58.7 µM.
Take `COCCOCC(=O)N(CCn1ccc(NC(c2ccccc2)(c2ccccc2)c2ccccc2)nc1=O)CCn1cnc2nc(N)[nH]c(=O)c21`: the TGI in test [1], in test [2], in test [3], in test [4], in [5] and in [6] was over 100 µM in each case. Moreover, the TGI in test [7], in test [8], in test [9] and in test [10] was over 100 µM in each case.
Consider `COc1ccc(-c2csc(-c3cc(Cl)cc(Cl)c3Cl)n2)cc1`, for which the GI50 in test [1] was over 100 µM; in test [2], 53.8 µM; in [3], 78.3 µM; in [4] it was 57.8 µM; in test [5], 7.05 µM; in test [6], 48.4 µM. Besides, the GI50 was 32.2 µM in test [7], 60.2 µM in test [8], 73.5 µM in test [9] and 81.1 µM in test [10]. Moreover, the TGI in [1] was over 100 µM; in [2], over 100 µM; in [3] it was over 100 µM; in [4], over 100 µM; in test [5], 32.4 µM; in [6], over 100 µM. The TGI in test [7], in test [8], in test [9] and in test [10] was over 100 µM throughout.
Regarding `CS(=O)(=O)CCNCc1ccc(-c2ccc3ncnc(Nc4ccc(OCc5ccccc5)c(Cl)c4)c3c2)o1`, the GI50 in test [1] was 4.06 µM; in test [2], 9.59 µM; in [3], 5.2 µM; in test [4], 4.94 µM; in test [5] it was 6.91 µM; in test [6], 8.1 µM. For the same compound, the GI50 was 2.98 µM in [7], 5.02 µM in [8], 3.55 µM in test [9] and 5.18 µM in [10]. Moreover, the TGI is 8.58 µM in [1]; over 25 µM in test [2]; 11.8 µM in test [3]; 12.1 µM in test [4]; 23.9 µM in [5]; over 25 µM in [6]. The TGI is 6.08 µM in test [7], over 15.8 µM in test [8], 10 µM in test [9] and 10.4 µM in test [10].
Take `O=C1C2c3[nH]c4ccccc4c3[C@@H]3CCCCC3C2C(=O)N1c1ccccc1` (stereo not given in full): the TGI in test [1] amounted to 37.5 µM; in [2] it was 75 µM; in test [3], 47.5 µM; in test [4], 43.2 µM; in test [5], 77.8 µM; in [6], 52.9 µM. The TGI in [7] was 32.1 µM; in test [8], 28 µM; in test [9], over 100 µM; in test [10], 38.4 µM.
Take `CCOC(=O)c1cc2c(n1Cc1ccccc1)-c1oncc1CC2`: the GI50 in test [1] is 7.51 µM; in test [2], 7.69 µM; in test [3], 2.4 µM; in [4], 2.89 µM; in test [5], 2.56 µM; in [6], 7.19 µM. The GI50 is 2.97 µM in test [7], 4.73 µM in test [8], 3.58 µM in test [9] and 6.28 µM in [10]. Besides, the TGI in [1] is 34.2 µM; in test [2], over 100 µM; in test [3] it was 6.59 µM; in test [4], 11.1 µM; in test [5] it was 15.5 µM; in test [6], 66.9 µM. Also, the TGI was 12 µM in test [7], 34 µM in test [8], 56.2 µM in test [9] and 37 µM in test [10].
For `COC(OC)[C@@H](C)[C@H](O)[C@](C)(O)C1OC(C)(C)OC(C(C)C=C(C)C)C1C` (stereo not given in full), the TGI in [1], in [2], in [3], in test [4], in test [5] and in [6] was over 100 µM throughout. For the same compound, the TGI in [7], in test [8], in [9] and in [10] was over 100 µM each time.
Consider `Cc1cc(C)nc(SC2=C(Nc3cccc(Cl)c3C)C(=O)N(Cc3ccccc3)C2=O)n1`, for which the GI50 in test [1], in test [2], in [3], in test [4], in test [5] and in [6] was over 160 µM throughout. Moreover, the GI50 in test [7], in [8], in test [9] and in [10] was over 160 µM in each case. Besides, the TGI in test [1], in test [2], in [3], in test [4], in test [5] and in [6] was over 160 µM throughout. Also, the TGI in test [7], in test [8], in test [9] and in [10] was over 160 µM each time.
Turning to `C=C1C(=O)O[C@H]2[C@H]1CC/C(COC(=O)c1ccc(C#N)cc1)=C\CC[C@@]1(C)O[C@@H]21`, the GI50 in test [1] is 1.92 µM; in [2], 2.88 µM; in test [3], 1.67 µM; in test [4], 8.16 µM; in test [5], 0.548 µM; in test [6], 2.75 µM. The GI50 in test [7] is 1.85 µM; in [8], 2.86 µM; in [9], 1.44 µM; in test [10] it was 2.04 µM. In addition, the TGI in test [1] was 3.99 µM; in test [2], 9.39 µM; in test [3], 7.47 µM; in [4], 20.7 µM; in test [5], over 100 µM; in test [6], 11.2 µM. Also, the TGI came to 3.75 µM in test [7], 10.3 µM in [8], 3.22 µM in test [9] and 4.16 µM in [10].
Consider `O=C1/C(=C/c2ccccc2)CN(C(=O)OCc2ccccc2)C/C1=C\c1ccccc1`, for which the TGI was 18.5 µM in [1]; 27.4 µM in test [2]; 5.43 µM in [3]; 26.7 µM in [4]; 12.3 µM in test [5]; 9.39 µM and 20.3 µM in test [6]. Besides, the TGI in test [7] is 30.7 µM; in test [8], 17.8 µM; in [9], 20.8 µM; in test [10], over 46.4 µM. For the same compound, the GI50 was 7.9 µM in test [2]; 3.63 µM in test [4]; 3.05 µM in [6]; 3.44 µM in [7]; 4.01 µM in test [9].
Take `COc1cnc2c(c1)C(=O)c1c-2n(CCCN2CCCC2)c(=O)c2cc(F)ccc12`: the GI50 was 0.257 µM in test [1]; 0.365 µM in test [2]; 0.311 µM in test [3]; 0.202 µM in [4]; 0.144 µM in test [5]; 0.206 µM in test [6]. The GI50 is 0.309 µM in test [7], 0.116 µM in [8], 0.283 µM in test [9] and 0.452 µM in test [10]. Also, the TGI in test [1] came to 1.11 µM; in test [2], 11.3 µM; in [3] it was 1.13 µM; in test [4], 0.755 µM; in test [5] it was 1.26 µM; in test [6], 1.05 µM. Moreover, the TGI worked out at 1.29 µM in [7], 0.467 µM in test [8], 1.98 µM in test [9] and 1.73 µM in test [10].
With `CCc1nc(N)nc(N)c1-c1ccc(NCCc2ccccc2)c([N+](=O)[O-])c1`, the TGI is 17 µM in [1]; 46.2 µM in [2]; 6.77 µM in [3]; 32.9 µM in test [4]; 24 µM in test [5]; 89 µM in [6]. The TGI is 10.1 µM in [7], 47.3 µM in [8], over 57.5 µM in test [9] and 9.74 µM in test [10].
For `COc1ccc(/C(=N/NC(N)=O)C(c2ccc(OC)cc2)C2C(=O)Oc3ccccc32)cc1` (stereo not given), the TGI in [1], in test [2], in test [3], in [4], in [5] and in test [6] was over 100 µM each time. In addition, the TGI in [7], in test [8], in test [9] and in test [10] was over 100 µM each time.
Consider `Nc1nc(N)c2nc(CNc3ccc(C(=O)NC(CCCNC(=O)c4ccccc4C(=O)O)C(=O)O)cc3)cnc2n1` (stereo not given), for which the GI50 in [1] was 0.00054 µM; in test [2], over 100 µM; in test [3] it was 0.00049 µM; in test [4], < 0.01 µM and 0.00332 µM; in test [5], 0.000424 µM; in test [6] it was 0.0015 µM. For the same compound, the GI50 in [7] is 0.00577 µM; in test [9], 0.00105 µM. Besides, the TGI in test [1], in test [2], in test [3], in test [5], in test [6] and in test [7] was over 100 µM throughout. In addition, the TGI in [8], in [9] and in test [10] was over 100 µM throughout.
For the compound `O=C(OCc1ccc2c(Cl)cc(Cl)c(O)c2n1)c1cc2ccccc2[nH]1`, the GI50 in [1] is 0.275 µM; in test [2] it was 0.596 µM; in test [3] it was 0.374 µM; in test [4], 1.64 µM; in [5] it was 0.324 µM; in test [6], 0.818 µM. Also, the GI50 in test [7] is 1.33 µM; in [8], 1.61 µM; in test [9] it was 0.217 µM; in [10] it was 1.26 µM. Also, the TGI in [1] was determined as 0.833 µM; in [2] it was 1.45 µM; in test [3], 1.69 µM; in test [4] it was 3.31 µM; in test [5], 1.92 µM; in test [6], 3.05 µM. The TGI in test [7] turned out to be 2.63 µM; in [8] it was 3.22 µM; in [9], 0.517 µM; in test [10], 2.6 µM.
Regarding `CCCCn1sc(=O)n(Cc2ccc(CNC(=O)OCc3ccc4c(Br)cc(Br)c(O)c4n3)cc2)c1=O`, the GI50 in test [1] was 1.58 µM; in [2] it was 0.701 µM; in [3] it was 0.374 µM; in [4] it was 4.09 µM; in test [5], 0.404 µM; in test [6] it was 0.415 µM. The GI50 in test [7] is 0.55 µM; in test [8], 0.659 µM; in test [9], 0.468 µM; in test [10], 0.831 µM. The TGI was over 100 µM in [1]; over 100 µM in [2]; over 24.5 µM in test [4]; over 100 µM in test [5]; over 81.4 µM in test [6]; 2.07 µM in test [7]. Besides, the TGI in [8], in test [9] and in [10] was over 100 µM throughout.
Take `CC1=C[S+](c2ccccc2)c2cccc3cc4ccccc4c1c23` (stereo not given): the GI50 in test [1] is 0.379 µM; in [2], 0.773 µM; in [3] it was 0.173 µM; in test [4], 0.111 µM; in test [5] it was 0.297 µM; in test [6], 0.158 µM. Moreover, the GI50 in test [7] was 0.247 µM; in test [8] it was 0.0458 µM; in test [9], 0.378 µM; in test [10] it was 0.372 µM. The TGI in test [2] is 2.44 µM; in test [3], 1.03 µM; in [4], 0.584 µM; in [5], 2.14 µM; in test [6], 3.73 µM; in test [7] it was 0.776 µM. Further, the TGI in test [8] came to 0.337 µM; in [9] it was 8.44 µM; in test [10], 2.22 µM.
